From ChEMBL document CHEMBL1140610, “Matrix metalloproteinases (MMPs): chemical-biological functions and (Q)SARs” (Bioorg Med Chem, 2007)

How the values were obtained:
[1] = molecular target: Matrix metalloproteinase-14 (Homo sapiens, UniProt P50281)
Interstitial collagenase = molecular target: T1, Interstitial collagenase (Homo sapiens, UniProt P03956); details: read-out: log(1/IC50) (converted)
T1 sequence (P03956 whole entry): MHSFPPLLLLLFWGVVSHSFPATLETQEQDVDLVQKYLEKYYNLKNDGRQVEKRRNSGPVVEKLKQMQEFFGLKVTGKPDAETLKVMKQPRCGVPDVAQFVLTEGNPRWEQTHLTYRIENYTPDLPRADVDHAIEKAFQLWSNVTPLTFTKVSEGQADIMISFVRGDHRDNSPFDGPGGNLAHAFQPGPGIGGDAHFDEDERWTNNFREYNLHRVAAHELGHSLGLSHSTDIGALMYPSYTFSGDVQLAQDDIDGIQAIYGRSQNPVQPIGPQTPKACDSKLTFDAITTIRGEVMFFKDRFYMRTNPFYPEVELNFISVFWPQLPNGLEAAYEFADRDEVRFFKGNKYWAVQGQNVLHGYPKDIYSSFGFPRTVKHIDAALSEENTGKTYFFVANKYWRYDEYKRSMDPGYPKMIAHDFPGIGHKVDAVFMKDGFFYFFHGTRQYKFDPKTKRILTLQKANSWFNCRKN

Matrilysin = molecular target: T2, Matrilysin (Homo sapiens, UniProt P09237); details: read-out: log(1/IC50) (converted)
T2 sequence (P09237 whole entry): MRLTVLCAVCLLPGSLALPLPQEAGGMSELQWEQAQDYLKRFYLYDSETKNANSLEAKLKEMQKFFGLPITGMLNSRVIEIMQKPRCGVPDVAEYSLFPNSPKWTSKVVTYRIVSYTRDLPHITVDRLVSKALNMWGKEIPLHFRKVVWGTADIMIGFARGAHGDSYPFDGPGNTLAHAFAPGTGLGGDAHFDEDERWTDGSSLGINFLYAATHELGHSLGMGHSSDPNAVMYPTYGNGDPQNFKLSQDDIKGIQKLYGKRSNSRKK

SMILES: CCOCCC1(Oc2ccc(Oc3ccc(C(=O)NC)cc3)cc2)C(=O)NC(=O)NC1=O
- IC50 [1]: 646 nM

SMILES: COc1ccccc1COc1ccc(S(=O)(=O)N2CCC[C@@](C)(O)C2C(=O)NO)cc1 (some centres undefined)
- IC50 (Interstitial collagenase): 2570 nM

SMILES: CNC(=O)[C@@H](NC(=O)C(CCC(F)(F)F)CP(=O)(O)Cc1ccc(Cc2ccccc2)cc1)C(C)(C)C (some centres undefined)
- IC50 (Interstitial collagenase): 44.7 nM

SMILES: CCOCCC1(Oc2ccc(Oc3ccc(OC)cc3)cc2)C(=O)NC(=O)NC1=O
- IC50 [1]: 219 nM

SMILES: CNC(=O)[C@@H](Cc1ccc(OC)cc1)NC(=O)C(CC(C)C)CP(=O)(O)Cc1ccc(-c2ccccc2)cc1 (some centres undefined)
- IC50 (Interstitial collagenase): 2190 nM

SMILES: CNC(=O)[C@@H](NC(=O)C(CCC(C)C)CP(=O)(O)Cc1ccc(Cc2ccccc2)cc1)C(C)(C)C (some centres undefined)
- IC50 (Interstitial collagenase): 3470 nM

SMILES: C[C@@]1(O)CCCN(S(=O)(=O)c2ccc(OCc3ccccc3F)cc2)C1C(=O)NO (some centres undefined)
- IC50 (Interstitial collagenase): 182 nM

SMILES: CC(N)P(=O)(O)CC(Cc1ccccc1)C(=O)NC(Cc1c[nH]c2ccccc12)C(N)=O (centres undefined)
- IC50 (Interstitial collagenase): 251 nM

SMILES: CCCCOc1ccc(S(=O)(=O)N2CC(N3C(=O)NC(C)(C)C3=O)C[C@@H]2C(=O)NO)cc1 (some centres undefined)
- IC50 (Matrilysin): 447 nM

SMILES: CNC(=O)[C@@H](NC(=O)C(CCC1CCCCC1)CP(=O)(O)Cc1ccc(Cc2ccccc2)cc1)C(C)(C)C (some centres undefined)
- IC50 (Interstitial collagenase): 19100 nM

SMILES: CCOCCC1(Oc2ccc(Oc3cccc(Cl)c3)cc2)C(=O)NC(=O)NC1=O
- IC50 [1]: 120 nM

SMILES: C[C@@]1(O)CCCN(S(=O)(=O)c2ccc(OCc3ccccc3C#N)cc2)C1C(=O)NO (some centres undefined)
- IC50 (Interstitial collagenase): 2690 nM

SMILES: C[C@@]1(O)CCCN(S(=O)(=O)c2ccc(OCc3ccnc(Cl)c3)cc2)C1C(=O)NO (some centres undefined)
- IC50 (Interstitial collagenase): 525 nM

SMILES: CCOCCC1(Oc2ccc(Oc3ccc(Cl)cc3)cc2)C(=O)NC(=O)NC1=O
- IC50 [1]: 18.2 nM

SMILES: C[C@@]1(O)CCCN(S(=O)(=O)c2ccc(OC[n+]3ccncc3)cc2)C1C(=O)NO (some centres undefined)
- IC50 (Interstitial collagenase): 1580 nM

SMILES: CCCCOc1ccc(S(=O)(=O)N2CC(N3C(=O)CN(C)C3=O)C[C@@H]2C(=O)NO)cc1 (some centres undefined)
- IC50 (Matrilysin): 1580 nM

SMILES: CC(C)CC(C(=O)NO)N(Cc1ccccc1)S(=O)(=O)c1c(F)c(F)c(F)c(F)c1F (centres undefined)
- IC50 (Interstitial collagenase): 6.03 nM

SMILES: CC(C)COc1ccc(S(=O)(=O)N2CC(N3C(=O)CN(C)C3=O)C[C@@H]2C(=O)NO)cc1 (some centres undefined)
- IC50 (Matrilysin): 2290 nM

SMILES: CNC(=O)[C@@H](NC(=O)C(CC1CC1)CP(=O)(O)Cc1ccc(Cc2ccccc2)cc1)C(C)(C)C (some centres undefined)
- IC50 (Interstitial collagenase): 200 nM

SMILES: CNC(=O)[C@@H](Cc1ccc(OC)cc1)NC(=O)C(CC(C)C)CP(=O)(O)Cc1ccc(S(=O)(=O)c2ccccc2)cc1 (some centres undefined)
- IC50 (Interstitial collagenase): 1700 nM

SMILES: Cc1ccccc1COc1ccc(S(=O)(=O)N2CCC[C@@](C)(O)C2C(=O)NO)cc1 (some centres undefined)
- IC50 (Interstitial collagenase): 309 nM

SMILES: CNC(=O)[C@@H](Cc1ccc(OC)cc1)NC(=O)C(CC(C)C)CP(=O)(O)Cc1ccccc1 (some centres undefined)
- IC50 (Interstitial collagenase): 15100 nM

SMILES: C[C@@]1(O)CCCN(S(=O)(=O)c2ccc(OCc3ccc(Cl)cc3F)cc2)C1C(=O)NO (some centres undefined)
- IC50 (Interstitial collagenase): 120 nM

SMILES: CCOCCC1(Oc2ccc(Oc3ccccc3C)cc2)C(=O)NC(=O)NC1=O
- IC50 [1]: 70.8 nM

SMILES: Cc1c(F)cccc1COc1ccc(S(=O)(=O)N2CCC[C@@](C)(O)C2C(=O)NO)cc1 (some centres undefined)
- IC50 (Interstitial collagenase): 1290 nM

SMILES: CCOCCC1(Oc2ccc(Oc3ccc(C)cc3)cc2)C(=O)NC(=O)NC1=O
- IC50 [1]: 22.9 nM

SMILES: CN1CC(=O)N(C2C[C@H](C(=O)NO)N(S(=O)(=O)c3ccc(Oc4ccccc4)cc3)C2)C1=O (some centres undefined)
- IC50 (Matrilysin): 309 nM

SMILES: CNC(=O)[C@@H](Cc1ccc(OC)cc1)NC(=O)C(CC(C)C)CP(=O)(O)Cc1ccc(CC2CCCCC2)cc1 (some centres undefined)
- IC50 (Interstitial collagenase): 1910 nM

SMILES: CNC(=O)[C@@H](Cc1ccc(OC)cc1)NC(=O)C(CC(C)C)CP(=O)(O)Cc1ccc(Cc2ccccc2)cc1 (some centres undefined)
- IC50 (Interstitial collagenase): 269 nM

SMILES: CCCC(CP(=O)(O)Cc1ccc(Cc2ccccc2)cc1)C(=O)N[C@H](C(=O)NC)C(C)(C)C (some centres undefined)
- IC50 (Interstitial collagenase): 339 nM

SMILES: CCOCCC1(Oc2ccc(Oc3ccc(Br)cc3)cc2)C(=O)NC(=O)NC1=O
- IC50 [1]: 19.1 nM

SMILES: CCOCCC1(Oc2ccc(Oc3ccc(C(C)(C)C)cc3)cc2)C(=O)NC(=O)NC1=O
- IC50 [1]: 6760 nM

SMILES: CC(C(=O)NO)N(Cc1ccc([N+](=O)[O-])cc1)S(=O)(=O)c1c(F)c(F)c(F)c(F)c1F (centres undefined)
- IC50 (Interstitial collagenase): 3.98 nM

SMILES: COCCOc1ccc(S(=O)(=O)N2CC(N3C(=O)CN(C)C3=O)C[C@@H]2C(=O)NO)cc1 (some centres undefined)
- IC50 (Matrilysin): 9120 nM

SMILES: CCOCCC1(Oc2ccc(Oc3ccc(F)cc3)cc2)C(=O)NC(=O)NC1=O
- IC50 [1]: 22.9 nM

SMILES: C[C@@]1(O)CCCN(S(=O)(=O)c2ccc(OCc3ccc(F)cc3Cl)cc2)C1C(=O)NO (some centres undefined)
- IC50 (Interstitial collagenase): 309 nM

SMILES: CCOCCC1(Oc2ccc(Oc3ccc(S(C)(=O)=O)cc3)cc2)C(=O)NC(=O)NC1=O
- IC50 [1]: 8710 nM

SMILES: CNC(=O)[C@@H](Cc1ccc(OC)cc1)NC(=O)C(CC(C)C)CP(=O)(O)Cc1cccc(-c2ccccc2)c1 (some centres undefined)
- IC50 (Interstitial collagenase): 5130 nM

SMILES: CNC(=O)[C@@H](Cc1ccc(OC)cc1)NC(=O)C(CC(C)C)CP(=O)(O)Cc1ccc(Oc2ccccc2)cc1 (some centres undefined)
- IC50 (Interstitial collagenase): 2820 nM
